Source: patent US20060094676A1, “Compositions and methods for treating cancer using compositions comprising an inhibitor of endothelin receptor activity” (priority 2004, published 2006)

Legend:
Type in all cases: cell-based, human
[1] = system: Me 190/DA (Cut-met) melanoma cells; assay: MTS assay of cell viability after BQ788; settings: incubation with BQ788 for seven days
Method: (§1) Cells were cultured on a matrigel matrix that was histologically examined after two weeks (A-F). While the primary melanoma cells remained on top of the gel only (A and B), a fraction of the Cut-met cells invaded the gel (C and D) and the LN-met cells invaded the matrix extensively (E and F). Cell lysates of the three lines were subjected to western blot analysis using an anti-ETRB Ab (G) and an anti-tubulin Ab (H). Untreated, control (vehicle treated), and BQ788 treated cells were subjected to MTS assay to quantify any reduction in cell number. The mean values were calculated and plotted (I) as the percentage of the vehicle treated value+/− SEM.
(§2) Human melanoma cell lines Me191-1/GG (Primary), Me 190/DA (Cut-met), Me 275/EP (LN-met) were obtained from the Ludwig Institute (Epalinges, Switzerland) and SK-MEL-28 was obtained from the American Tissue Culture Collection (ATCC). […] After removal of the inserts, MTS solution was added to the well to quantify the cells that migrated through the insert and were attached to the bottom of the well by measuring the OD at 492 nm (Promega). […]
(§3) To address the relationship between the level of progression of human melanoma and responsiveness to BQ788 treatment, 3 cell lines that had been grown in culture for a restricted number of passages were used. […] This effect was quantified using the MTS assay.

[2] = system: Me 275/EP (LN-met) melanoma cells; assay: MTS assay of cell viability after BQ788; settings: incubation with BQ788 for seven days; LN-met line
Method: as §1, §2, §3

PARP-3 = assay: Real-time RT-PCR of PARP-3 transcripts; settings: primary melanoma cells; BQ788 treatment
Method: Equal amounts of RNA from cells that were treated with BQ788 for 3 days were subjected to real-time RT-PCR analysis for the detection of BCL-2A1 (A) and ADP ribosyltransferase 3 (B) transcripts. Total amounts are represented in A while relative (to control) values are shown in B. Differences in expression levels are shown as x fold decrease and are statistically significant (p<0.05) unless a column in marked as non significant (N.S.). Lysates of BQ788 treated cells and controls were subjected to an apoptosis ELISA detection test (C). SK-MEL-28 cells were cultured with pan caspase inhibitor (D) or with caspase 6 inhibitor (E) with or without BQ788 for 2.5 days. […] SK-MEL-28 cells were cultured for 3 days in the presence of BQ788 and assayed for caspase 6 activity (F). The difference between the columns is statistically significant (p<0.05).
RNA was prepared from the different cell lines in different culture conditions using SV total RNA isolation kit (Promega) according to the manufacturer's protocol. For each sample RNA concentration was determined using the total RNA nano procedure of an Agilent bioanalyzer. […] A standard curve of Ct versus RNA quantity was established and accordingly the Ct in the unknown samples was correlated to quantity of transcript. […]

Structure (SMILES): CCCC[C@@H](NC(=O)[C@@H](Cc1cn(C(=O)OC)c2ccccc12)NC(=O)[C@H](CC(C)(C)C)NC(=O)N1[C@H](C)CCC[C@@H]1C)C(=O)O [BQ788, N-cis-2,6-dimethylpiperidinocarbonyl-L-γ-methylleucyl-D-1-methoxycarbonyltrptophanyl-D-norleucine]
- reduction of viability [1]: 45%
- reduction of viability [2]: 96%
- PARP-3 levels (PARP-3): did not show a decrease
